Source: patent US20030039580A1, “Stable preservative formulations comprising halopropynyl compounds and butoxydiglycol solvent” (Lonza Inc., priority 2001, published 2003)

Columns and labels:
[1] = test system: mixed fungi, comprising A. niger (ATCC 16404) and C. albicans (ATCC 10231); experiment: Inhibition of mixed fungi by propynyl compound solutions in protein shampoo (Example 2); type: cell-based; settings: Table 3, 500 ppm in protein shampoo (GPL 1000 ppm), solvent butoxydiglycol (A, E) or butylene glycol (B, C, D)
Experimental: (§1) Each of the samples A to E is a protein shampoo comprising a propynyl compound. The samples were tested for antibacterial and antifungal properties by testing for inhibition of a mixed bacteria, comprising E. coli (ATCC 8739), P. aeruginosa (ATCC 9027), and S. aureus (ATCC 6538), and inhibition of a mixed fungi, comprising A. niger (ATCC 16404) and C. albicans (ATCC 10231).
(§2) The samples “GPL” and “NP” are controls. “GPL” is 0. 1% Glydantg Plus, a liquid antimicrobial preservative available from Lonza Inc., Fair Lawn, N.J., containing a dimethyol dimethyl hydantoin formaldehyde donor. Glydant® Plus is used in personal care formulations in cosmetics and personal care products.
(§3) In Table 3, samples A and E consist of an iodopropynyl compound in a butoxydiglycol solvent. Samples C and D consist of an iodopropynyl compound in a butylene glycol solvent, and Sample B consists of a propynyl compound in a butylene glycol solvent.

[2] = test system: mixed bacteria, comprising E. coli (ATCC 8739), P. aeruginosa (ATCC 9027), and S. aureus (ATCC 6538); experiment: Inhibition of mixed bacteria by propynyl compound solutions in protein shampoo (Example 2); type: cell-based; settings: Table 3, 500 ppm in protein shampoo (GPL 1000 ppm), solvent butoxydiglycol (A, E) or butylene glycol (B, C, D)
Experimental: as §1, §2, §3

[3] = Solubility testing of propynyl compounds in solvents; type: physicochemical; settings: for Solubility in Butanediol Anhydrous: solvent Butanediol Anhydrous; for Solubility in Butoxydiglycol: solvent Butoxydiglycol; for Solubility in Sorbitol: solvent Sorbitol
Excerpt: The compounds used in Example 1 are identified below in Table 1. The results of the solubility testing is shown below in Table 2.

Fungi = experiment: Antifungal screening of propynyl compositions in protein shampoo formulations (Example 3); type: cell-based; settings: Table 4, 500 ppm in protein shampoo pH 7.0 (GPL 1000 ppm), solvent butoxydiglycol (A, H) or butylene glycol (F, G)
Excerpt: (§4) Samples of a standard protein shampoo (pH-7.0) were formed. The shampoo contained the following preservative-free ingredients, w/w % Samples A, […] and H contained active preservative iodopropynyl agents in a solvent. Samples A and H contained butoxydiglycol as the solvent. Samples F and G (containing a propynyl compound rather than a halopropynyl compound) contained butylene glycol as the solvent.

Bacteria = experiment: Antibacterial screening of propynyl compositions in protein shampoo formulations (Example 3); type: cell-based; settings: Table 4, 500 ppm in protein shampoo pH 7.0 (GPL 1000 ppm), solvent butoxydiglycol (A, H) or butylene glycol (F, G)
Excerpt: as §4

Burkholderia cepacia = experiment: Minimum inhibitory concentration, IPBC and butoxydiglycol in protein shampoo (Example 4); type: cell-based
Experimental: Sample protein shampoos I, J and K were formed. Sample I contained only IPBC. Sample J contained only butoxydiglycol. Sample K contained both IPBC and butoxydiglycol. […] Synergism for the IPBC/butoxydiglycol studies in Table 5 was calculated by the method described in C. E. Kull et al., “Mixtures of Quaternary Ammonium Compounds and Long-Chain Fatty Acids as Antifungal Agents”, Applied Microbiology, 4:538-541(1961). The Kull method determines the quantity of each component in a mixture which is required to reach a given microbiological endpoint (e.g., MIC), and compares that amount with the quantity of the pure component necessary to reach the same endpoint. According to this method, a synergism index or value QA/QB+Qa/Qb is determined, wherein: […]

SMILES | DAY 0 Fungi (cfu/ml) [1] | DAY 14 Fungi (cfu/ml) [1] [cfu/ml] | DAY 28 Fungi (cfu/ml) [1] | DAY 0 Bacteria (cfu/ml) [2] | DAY 14 Bacteria (cfu/ml) [2] | DAY 28 Bacteria (cfu/ml) [2] | Solubility in Butanediol Anhydrous [3] | Solubility in Butoxydiglycol [3] | Solubility in Sorbitol [3] | DAY 0 Fungi (cfu/ml) (Fungi) | DAY 14 Fungi (cfu/ml) (Fungi) | DAY 28 Fungi (cfu/ml) (Fungi) | DAY 0 Bacteria (cfu/ml) (Bacteria) | DAY 14 Bacteria (cfu/ml) (Bacteria) | DAY 28 Bacteria (cfu/ml) (Bacteria) | MIC (Burkholderia cepacia; Burkholderia cepacia, single active alone in protein shampoo, complete inhibition of growth, read-out: MIC, ppm active) [mg/mL] | Concentration (ppm) QB (Burkholderia cepacia; Table 6, parameter MIC) | Concentration (ppm) QA (Burkholderia cepacia; Table 6, parameter MIC) | MIC, ppm active (Burkholderia cepacia; single active alone in protein shampoo, complete inhibition of growth)
Cc1ccc(C(Cn2ccnc2)OCC#CI)cc1 (centres unmarked) [Compound L103, 2-(1-imidazolyl)-1-(4-methylphenyl)ethyl iodopropargyl ether] | 1.00 × 10^5 cfu/ml | 500 | 400 cfu/ml | 7.00 × 10^6 cfu/ml | <10 cfu/ml | <10 cfu/ml | − | + | − |  |  |  |  |  |  |  |  |  | 
O=C(O)CCOCC#CI [Compound L111, Iodopropynyloxypropionic Acid] |  |  |  |  |  |  |  |  |  | 8.00 × 10^6 cfu/ml | <10 cfu/ml | <10 | 8.00 × 10^6 cfu/ml | <10 cfu/ml | <10 |  |  |  | 
O=C(C#CI)c1ccc(C(F)(F)F)cc1 [Compound L74, 3-iodo-1-(4-trifluoromethylphenyl)-2-propyn-1-one] | 1.00 × 10^5 cfu/ml | <10 | >10^3 cfu/ml | 8.00 × 10^6 cfu/ml | >3.0 × 10^3 cfu/ml | >10^3 cfu/ml | + | + |  |  |  |  |  |  |  |  |  |  | 
O=c1c(Cl)cn(CC#CI)c(=O)n1CC#CI [Compound L58, 1N,3N-Diiodopropyn-2-yl-5-chlorouracil] | 1.00 × 10^5 cfu/ml | <10 | <10 cfu/ml | 8.00 × 10^6 cfu/ml | <10 cfu/ml | <10 cfu/ml | − | + |  | 1.00 × 10^5 cfu/ml | <10 cfu/ml | <10 | 9.00 × 10^6 cfu/ml | <10 cfu/ml | <10 |  |  |  | 
OC(C#CI)c1cccs1 (centres unmarked) [Compound L90, 2-(3-iodo-2-propyn-1-ol-yl) thiophene] | 1.00 × 10^5 cfu/ml | <10 | >10^3 cfu/ml | 7.00 × 10^6 cfu/ml | >3.0 × 10^3 cfu/ml | >10^3 cfu/ml | + | + | − |  |  |  |  |  |  |  |  |  | 
C#CC(=O)c1ccc(C#N)cc1 [Compound L106, 1-(4-cyanophenyl)-2-propyn-1-one] |  |  |  |  |  |  | + | + | − | 1.00 × 10^5 cfu/ml | >1.0 × 10^3 cfu/ml | 100 | 8.00 × 10^6 cfu/ml | >1.0 × 10^4 cfu/ml | <10 |  |  |  | 
CCCCOCCOCCO [Butoxydiglycol, 2-(2-butoxyethoxy)ethanol] |  |  |  |  |  |  |  |  |  |  |  |  |  |  |  | 12.5 | 12,500 ppm |  | 
OC(C#CI)c1ccc(Cl)s1 (centres unmarked) [Compound L100] |  |  |  |  |  |  |  |  |  | 1.00 × 10^5 cfu/ml | <10 cfu/ml | <10 | 8.00 × 10^6 cfu/ml | 2.00 × 10^1 cfu/ml | 200 |  |  |  | 
CCCCNC(=O)OCC#CI [IPBC, 3-iodo-2-propynyl butyl carbamate] |  |  |  |  |  |  |  |  |  |  |  |  |  |  |  |  |  | 1,250 ppm | 1,250 ppm
